Source: patent publication US20250320205A1, “STAT6 DEGRADERS” (Gilead Sciences, Inc., priority 2024, published 2025)

What was measured:
[1] = biological target: T1, STAT6 (Homo sapiens, UniProt P42226); experiment: STAT6 Degrader Assay (HiBiT based, HeLa LgBiT clone 4.14 cells); assay type: cell-based; conditions: geometric mean across assay runs and compound batches; DC50 provided for test compounds with >80% Emax; read-out: STAT6 degradation DC50
T1 construct: These cells express endogenous STAT6; host or cells: HeLa LgBiT clone 4.14 (CRISPR knock-in of HiBiT into the endogenous STAT6 gene)
T1 sequence (P42226 1-847): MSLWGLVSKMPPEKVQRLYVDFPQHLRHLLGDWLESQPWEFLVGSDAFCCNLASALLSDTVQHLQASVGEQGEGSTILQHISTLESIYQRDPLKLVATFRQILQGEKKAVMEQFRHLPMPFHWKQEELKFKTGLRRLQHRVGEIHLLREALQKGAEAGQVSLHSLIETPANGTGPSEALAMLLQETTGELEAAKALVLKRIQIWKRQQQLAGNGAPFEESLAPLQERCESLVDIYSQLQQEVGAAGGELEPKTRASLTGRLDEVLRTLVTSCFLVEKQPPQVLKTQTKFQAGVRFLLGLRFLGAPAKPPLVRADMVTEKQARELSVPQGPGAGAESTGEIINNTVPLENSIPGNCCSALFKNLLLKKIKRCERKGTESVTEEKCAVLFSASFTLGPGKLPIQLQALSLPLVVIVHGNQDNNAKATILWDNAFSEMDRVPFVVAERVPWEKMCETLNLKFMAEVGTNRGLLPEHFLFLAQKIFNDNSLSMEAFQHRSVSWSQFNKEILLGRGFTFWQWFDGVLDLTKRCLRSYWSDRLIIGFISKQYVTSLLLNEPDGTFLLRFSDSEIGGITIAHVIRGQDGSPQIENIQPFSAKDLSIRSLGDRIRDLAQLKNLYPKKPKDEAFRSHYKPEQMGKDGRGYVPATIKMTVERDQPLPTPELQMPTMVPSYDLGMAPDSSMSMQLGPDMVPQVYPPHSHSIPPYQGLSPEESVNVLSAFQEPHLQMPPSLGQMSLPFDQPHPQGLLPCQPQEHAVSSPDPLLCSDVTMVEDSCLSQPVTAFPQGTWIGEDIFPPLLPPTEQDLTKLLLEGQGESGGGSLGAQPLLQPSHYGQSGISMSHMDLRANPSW
In short: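 HeLa LgBiT clone 4.14 with CRISPR HiBiT-tagged endogenous STAT6, 5000 cells/well, compound exposure 4-24 h at 37° C. Residual STAT6 read as Nano-Glo luminescence after 0.5 h. 50 μM terfenadine set 100% degradation; DC50 in nM.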

[2] = tested on: Eotaxin-3 (CCL26) release; experiment: Human Whole Blood Eotaxin-3 Assay (IL-4 stimulated); assay type: cell-based; conditions: Homo sapiens; geometric mean across assay runs and compound batches; EC50 provided for test compounds with >80% Emax
In short: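 Lithium-heparin human whole blood preincubated 2 h at 37 °C with compounds (4-fold dilutions, triplicate, 0.5% DMSO final). Then stimulated with 400 pM final recombinant human IL-4 for 48 h. Eotaxin-3 in supernatant quantified by MSD immunoassay.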

| SMILES | DC50 [1] | EC50 [2] |
| --- | --- | --- |
| CNc1ccn(-c2ccnc3c2cc([C@H](C)N2CC=C(c4c(F)cc(C(=O)N5CCC(CN6CCN(c7ccc(NC8CCC(=O)NC8=O)cc7F)CC6)CC5)cc4F)CC2)n3C)c(=O)c1 (stereo partly drawn) [Example 2g104, 3-((4-(4-((1-(3,5-difluoro-4-(1-((S)-1-(1-methyl-4-(4-(methylamino)-2-oxopyridin-1(2H)-yl)-1H-pyrrolo[2,3-b]pyridin-2-yl)ethyl)-1,2,3,6-tetrahydropyridin-4-yl)benzo-yl)piperidin-4-yl)methyl)-piperazin-1-yl)-3-fluorophen-yl)amino)piperidine-2,6-dione] | 3.8 nM | 9 nM |
| CNc1ccn(-c2ccnc3c2cc(CN2CCC(c4c(F)cc(C(=O)N5CCC(CN6CCN(c7ccc(NC8CCC(=O)NC8=O)cc7F)CC6)CC5)cc4F)CC2)n3C)c(=O)c1 (stereo not drawn) [Example 2g107, 3-((4-(4-((1-(3,5-difluoro-4-(1-((1-methyl-4-(4-(methyl-amino)-2-oxopyridin-1(2H)-yl)-1H-pyrrolo[2,3-b]pyridin-2-yl)methyl)piperidin-4-yl)-benzoyl)piperidin-4-yl)meth-yl)piperazin-1-yl)-3-fluoro-phenyl)amino)piperidine-2,6-dione] | 25.3 nM | 26.8 nM |
| CNc1ccn(-c2ccnc3c2cc([C@H](C)N2CC=C(c4c(F)cc(C(=O)N5CCn6nc(CN7CCC(c8ccc(NC9CCC(=O)NC9=O)cc8F)CC7)cc6C5)cc4F)CC2)n3C)c(=O)c1 (stereo partly drawn) [Example 2g108, 3-((4-(1-((5-(3,5-difluoro-4-(1-((S)-1-(1-methyl-4-(4-(methylamino)-2-oxopyridin-1(2H)-yl)-1H-pyrrolo[2,3-b]pyridin-2-yl)ethyl)-1,2,3,6-tetrahydropyridin-4-yl)benzo-yl)-4,5,6,7-tetrahydropyrazolo [1,5-a]pyrazin-2-yl)methyl)-piperidin-4-yl)-3-fluorophen-yl)amino)piperidine-2,6-dione] | 0.5 nM | 0.7 nM |
| CNc1ccn(-c2ccnc3c2cc([C@H](C)N2CCC(c4c(F)cc(C(=O)N5CCn6nc(CN7CCC(c8ccc(NC9CCC(=O)NC9=O)cc8F)CC7)cc6C5)cc4F)CC2)n3C)c(=O)c1 (stereo partly drawn) [Example 2g109, 3-((4-(1-((5-(3,5-difluoro-4-(1-((S)-1-(1-methyl-4-(4-(methylamino)-2-oxopyridin-1(2H)-yl)-1H-pyrrolo[2,3-b]pyridin-2-yl)ethyl)piperidin-4-yl)benzoyl)-4,5,6,7-tetra-hydropyrazolo[1,5-a]pyrazin-2-yl)methyl)piperidin-4-yl)-3-fluorophenyl)amino)piperi-dine-2,6-dione] | 0.4 nM | 0.3 nM |
| CNc1ccn(-c2ccnc3c2cc([C@@H](C)N2CCC(c4c(F)cc(C(=O)N5CCn6nc(CN7CCC(c8ccc(NC9CCC(=O)NC9=O)cc8F)CC7)cc6C5)cc4F)CC2)n3C)c(=O)c1 (stereo partly drawn) [Example 2g110, 3-((4-(1-((5-(3,5-difluoro-4-(1-((R)-1-(1-methyl-4-(4-(methylamino)-2-oxopyridin-1(2H)-yl)-1H-pyrrolo[2,3-b]pyridin-2-yl)ethyl)piperidin-4-yl)benzoyl)-4,5,6,7-tetra-hydropyrazolo[1,5-a]pyrazin-2-yl)methyl)piperidin-4-yl)-3-fluorophenyl)amino)piperi-dine-2,6-dione] | 10.5 nM | 23.3 nM |
| CNc1cc(=O)n(-c2ccnc3c2cc([C@H](C)N2CCC(c4c(F)cc(C(=O)N5CCn6nc(CN7CCC(c8ccc(NC9CCC(=O)NC9=O)cc8F)CC7)cc6C5)cc4F)CC2)n3C)cc1F (stereo partly drawn) [Example 2g111, 3-((4-(1-((5-(3,5-difluoro-4-(1-((S)-1-(4-(5-fluoro-4-(methylamino)-2-oxopyridin-1(2H)-yl)-1-methyl-1H-pyrrolo[2,3-b]pyridin-2-yl)-ethyl)piperidin-4-yl)benzoyl)-4,5,6,7-tetrahydropyrazolo [1,5-a]pyrazin-2-yl)methyl)-piperidin-4-yl)-3-fluorophen-yl)amino)piperidine-2,6-dione] | 0.6 nM | 0.6 nM |
| CNc1cc(=O)n(-c2ccnc3c2cc([C@H](C)N2CC=C(c4c(F)cc(C(=O)N5CCn6nc(CN7CCC(c8ccc(NC9CCC(=O)NC9=O)cc8F)CC7)cc6C5)cc4F)CC2)n3C)cc1F (stereo partly drawn) [Example 2g112, 3-((4-(1-((5-(3,5-difluoro-4-(1-((S)-1-(4-(5-fluoro-4-(methylamino)-2-oxopyridin-1(2H)-yl)-1-methyl-1H-pyr-rolo[2,3-b]pyridin-2-yl)ethyl)-1,2,3,6-tetrahydropyridin-4-yl)benzoyl)-4,5,6,7-tetra-hydropyrazolo[1,5-a]pyrazin-2-yl)methyl)piperidin-4-yl)-3-fluorophenyl)amino)piperi-dine-2,6-dione] | 1.1 nM | 0.9 nM |
| CNc1ccn(-c2ccnc3c2cc([C@H](C)N2CC=C(c4c(C)cc(C(=O)N5CCC(CN6CCN(c7ncc(NC8CCC(=O)NC8=O)cc7F)C[C@H]6C)CC5)cc4F)CC2)n3C)c(=O)c1 (stereo partly drawn) [Example 2g113, 3-((5-fluoro-6-((R)-4-((1-(3-fluoro-5-methyl-4-(1-((S)-1-(1-methyl-4-(4-(methyl-amino)-2-oxopyridin-1(2H)-yl)-1H-pyrrolo[2,3-b]pyridin-2-yl)ethyl)-1,2,3,6-tetrahydro-pyridin-4-yl)benzoyl)piperi-din-4-yl)methyl)-3-methyl-piperazin-1-yl)pyridin-3-yl)-amino)piperidine-2,6-dione] | 3.5 nM | 13.8 nM |
| CNc1ccn(-c2ccnc3c2cc([C@H](C)N2CC=C(c4c(C)cc(C(=O)N5CCn6nc(CN7CCC(c8ccc(NC9CCC(=O)NC9=O)c(OC)c8)CC7)cc6C5)cc4F)CC2)n3C)c(=O)c1 (stereo partly drawn) [Example 2g116, 3-((4-(1-((5-(3-fluoro-5-meth-yl-4-(1-((S)-1-(1-methyl-4-(4-(methylamino)-2-oxopyridin-1(2H)-yl)-1H-pyrrolo[2,3-b]pyridin-2-yl)ethyl)-1,2,3,6-tetrahydropyridin-4-yl)benzo-yl)-4,5,6,7-tetrahydropyrazolo [1,5-a]pyrazin-2-l)methyl)-piperidin-4-yl)-2-methoxy-phenyl)amino)-piperidine-2,6-dione] | 0.3 nM | 0.5 nM |
| CNc1cc(=O)n(-c2ccnc3c2cc([C@H](C)N2CC=C(c4c(F)cc(C(=O)N5CCC(CN6CCN(c7ccc(NC8CCC(=O)NC8=O)cc7F)CC6)CC5)cc4F)CC2)n3C)cc1F (stereo partly drawn) [Example 2g119, 3-((4-(4-((1-(3,5-difluoro-4-(1-((S)-1-(4-(5-fluoro-4-(methylamino)-2-oxopyridin-1(2H)-yl)-1-methyl-1H-pyr-rolo[2,3-b]pyridin-2-yl)ethyl)-1,2,3,6-tetrahydropyridin-4-yl)benzoyl)piperidin-4-yl)-methyl)piperazin-1-yl)-3-fluorophenyl)amino)piperi-dine-2,6-dione] | 14 nM | 48.2 nM |
| CNc1cc(=O)n(-c2ccnc3c2cc(CN2CCC(c4c(F)cc(C(=O)N5CCn6nc(CN7CCC(c8ccc(NC9CCC(=O)NC9=O)c(OC)c8)CC7)cc6C5)cc4F)CC2)n3C)cc1F (stereo not drawn) [Example 2g122, 3-((4-(1-((5-(3,5-difluoro-4-(1-((4-(5-fluoro-4-(methyl-amino)-2-oxopyridin-1(2H)-yl)-1-methyl-1H-pyrrolo[2,3-b]pyridin-2-yl)methyl)piperi-din-4-yl)benzoyl)-4,5,6,7-tetrahydropyrazolo[1,5-a]pyr-azin-2-yl)methyl)piperidin-4-yl)-2-methoxyphenyl)amino)-piperidine-2,6-dione] | 1.8 nM | 3.6 nM |
| CNc1ccn(-c2ccnc3c2cc([C@H](C)N2CC=C(c4c(C)cc(C(=O)N5CCn6nc(CN7CCC(c8cc(OC)c(NC9CCC(=O)NC9=O)cc8F)CC7)cc6C5)cc4F)CC2)n3C)c(=O)c1 (stereo partly drawn) [Example 2g128, 3-((5-fluoro-4-(1-((5-(3-fluoro-5-methyl-4-(1-((S)-1-(1-methyl-4-(4-(methyl-amino)-2-oxopyridin-1(2H)-yl)-1H-pyrrolo[2,3-b]pyridin-2-yl)ethyl)-1,2,3,6-tetrahydro-pyridin-4-yl)benzoyl)-4,5,6,7-tetrahydropyrazolo[1,5-a]pyr-azin-2-yl)methyl)piperidin-4-yl)-2-methoxyphenyl)amino)-piperidine-2,6-dione] | 0.1 nM | 0.2 nM |
